Series [1] is described as follows: Cytotoxicity against human PBMC cells assessed as reduction in cell viability upto 100 uM incubated for 24 hrs by LDH release assay. The series is classed as toxicity, cell-based. A general note: LDH leaks from cells whose membrane has failed.
A short description of series [2]: Cytotoxicity against HEK-Blue hTLR8 cells assessed as reduction in cell viability at 25 to 50 uM incubated for 24 hrs by MTT assay. It counts as toxicity, cell-based. Particulars: human, hek-blue htlr8, 24 h, dose 25-50 µM. (In general: Formazan colour is commonly taken as a measure of viable cells.)
Series [3] concerns THP-1. In words: Cytotoxicity against human THP-1 cells assessed as reduction in cell viability upto 100 uM incubated for 24 hrs by MTT assay. Particulars: thp-1, 24 h. The series is classed as toxicity, cell-based.
Series [4] concerns T1, Toll-like receptor 8 (Homo sapiens), Q9NR97 [F495L].
T1 sequence (whole entry): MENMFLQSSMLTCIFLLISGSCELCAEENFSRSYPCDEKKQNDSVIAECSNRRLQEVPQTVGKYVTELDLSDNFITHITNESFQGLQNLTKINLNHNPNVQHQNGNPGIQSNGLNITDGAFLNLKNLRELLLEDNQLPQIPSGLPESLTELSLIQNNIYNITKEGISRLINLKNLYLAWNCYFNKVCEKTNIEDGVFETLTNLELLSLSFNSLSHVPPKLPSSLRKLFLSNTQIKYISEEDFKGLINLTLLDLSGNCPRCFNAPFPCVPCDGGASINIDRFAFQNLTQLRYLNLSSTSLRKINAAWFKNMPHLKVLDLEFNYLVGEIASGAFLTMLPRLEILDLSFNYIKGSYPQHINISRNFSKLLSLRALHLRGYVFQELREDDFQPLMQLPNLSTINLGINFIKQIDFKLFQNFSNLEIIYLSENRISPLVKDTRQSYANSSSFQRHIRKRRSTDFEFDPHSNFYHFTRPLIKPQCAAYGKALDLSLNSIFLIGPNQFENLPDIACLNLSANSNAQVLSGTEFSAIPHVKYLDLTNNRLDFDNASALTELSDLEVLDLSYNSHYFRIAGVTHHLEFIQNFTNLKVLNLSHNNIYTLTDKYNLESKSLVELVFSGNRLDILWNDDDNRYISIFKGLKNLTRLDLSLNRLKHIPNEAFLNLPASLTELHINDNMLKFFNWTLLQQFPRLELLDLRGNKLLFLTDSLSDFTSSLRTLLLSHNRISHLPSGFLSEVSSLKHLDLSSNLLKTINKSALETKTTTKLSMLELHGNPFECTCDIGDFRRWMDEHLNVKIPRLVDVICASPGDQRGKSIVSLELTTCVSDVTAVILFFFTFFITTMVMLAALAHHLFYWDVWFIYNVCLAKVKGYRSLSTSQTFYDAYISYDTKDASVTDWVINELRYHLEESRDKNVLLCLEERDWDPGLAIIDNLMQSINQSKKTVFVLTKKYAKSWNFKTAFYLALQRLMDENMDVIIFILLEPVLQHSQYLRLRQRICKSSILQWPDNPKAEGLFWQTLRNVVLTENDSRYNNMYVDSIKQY
In words: Antagonist activity at human TLR8 F495L mutant transfected in HEK293 cells assessed as inhibition of TL8-506 induced NFkappaB activation at 1 uM preincubated with compound for 1 hrs followed by TL8-506 addition and measured after 24 hrs by Quanti-blue reagent based SEAP reporter assay. The series is classed as cell-based. Particulars: filed as antagonist.

Series [5] shares this test system. As to the kind of experiment: Antagonist activity at human TLR8 F495L mutant transfected in HEK293 cells assessed as inhibition of CL075 induced NFkappaB activation at 1 uM preincubated with compound for 1 hrs followed by CL075 addition and measured after 24 hrs by Quanti-blue reagent based SEAP reporter assay. It counts as cell-based. Particulars: filed as antagonist. (A reporter such as luciferase makes a cellular process visible.)

Activity calls are given as the source filed them. The rule behind the calls is not given here.

For the compound `COc1cc(C(=O)NCC(c2ccc(C)cc2)N(C)C)ccc1OCc1c(C)noc1C` (configuration not stated), the Activity result in series [1], in series [2] and in series [3] was “Non-toxic” throughout.
Regarding `N#Cc1ccc(N2C[C@H](N)C[C@H](C(F)(F)F)C2)c2cccnc12`, the outcome in series [4] and in series [5] was Active.
As to `COc1cc(C(=O)NCCN2CCCC2)ccc1OCc1c(C)noc1C`, the Activity result in series [2] is given as “Non-toxic”.
On the same count and under the same terms, the value for `Cc1noc(C)c1COc1ccc(C(=O)NCC(c2ccco2)N(C)C)cc1` (configuration not stated) was “Non-toxic”.

The values are drawn from ChEMBL document CHEMBL6153139, “Discovery of Novel Isoxazole-Based Small-Molecule Toll-Like Receptor 8 Antagonists” (J Med Chem, 2025).
